Source: ChEMBL document CHEMBL1201862, “PubChem BioAssay data set” (2004)
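Results reflect a 48-hour exposure of cells in 96-well plates to compound at five concentrations. GI50 marks 50% less growth.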 Activity calls are given as the source filed them. Rule as the data show it: active = GI50 up to about 1.1 µM and inactive = higher.

Assays:
Test in all cases: NCI anticancer screen, dose series, 48 h
IGROV-1 = test system: IGROV-1
HCC 2998 = test system: HCC 2998
MDA-N = test system: MDA-N
EKVX = test system: EKVX
SN12C = test system: SN12C
UACC-257 = test system: UACC-257
UO-31 = test system: UO-31
PC-3 = test system: PC-3
SNB-75 = test system: SNB-75
OVCAR-5 = test system: OVCAR-5
786-0 = test system: 786-0
SW-620 = test system: SW-620
HOP-92 = test system: HOP-92
MOLT-4 = test system: MOLT-4
NCI/ADR-RES = test system: NCI/ADR-RES
CCRF-CEM = test system: CCRF-CEM
NCI-H23 = test system: NCI-H23
DU-145 = test system: DU-145
SK-OV-3 = test system: SK-OV-3
SR = test system: SR
MCF7 = test system: MCF7
Hs-578T = test system: Hs-578T
M14 = test system: M14
SNB-19 = test system: SNB-19
NCI-H226 = test system: NCI-H226
SF-268 = test system: SF-268
K562 = test system: K562
HT-29 = test system: HT-29
OVCAR-3 = test system: OVCAR-3
NCI-H522 = test system: NCI-H522
MDA-MB-435 = test system: MDA-MB-435
HCT-116 = test system: HCT-116
HL-60 = test system: HL-60
ACHN = test system: ACHN
Malme-3M = test system: Malme-3M
SF-295 = test system: SF-295
LOX IMVI = test system: LOX IMVI
HCT-15 = test system: HCT-15
COLO 205 = test system: COLO 205
A549 = test system: A549
KM12 = test system: KM12
TK-10 = test system: TK-10
T47D = test system: T47D
OVCAR-4 = test system: OVCAR-4
UACC-62 = test system: UACC-62
A498 = test system: A498
NCI-H460 = test system: NCI-H460
BT-549 = test system: BT-549
OVCAR-8 = test system: OVCAR-8
HOP-62 = test system: HOP-62
SK-MEL-5 = test system: SK-MEL-5
RPMI-8226 = test system: RPMI-8226
SK-MEL-28 = test system: SK-MEL-28
CAKI-1 = test system: CAKI-1
SF-539 = test system: SF-539
MDA-MB-231 = test system: MDA-MB-231
U-251 = test system: U-251
SK-MEL-2 = test system: SK-MEL-2
RXF 393 = test system: RXF 393

Measured: GI50

O=C1CC(Cl)c2c(Cl)sc(Cl)c21 (centres undefined)
inactive: IGROV-1 1.99 µM | HCC 2998 2.36 µM | MDA-N 2.32 µM | EKVX 3.94 µM | SN12C 1.84 µM | UACC-257 2.96 µM | UO-31 1.99 µM | PC-3 2.2 µM | SNB-75 4.56 µM | OVCAR-5 16.2 µM | 786-0 1.47 µM | SW-620 1.75 µM | HOP-92 1.74 µM | MOLT-4 1.23 µM | NCI/ADR-RES 3.35 µM | NCI-H23 2.88 µM | DU-145 2.47 µM | SK-OV-3 18.6 µM | SR 1.41 µM | Hs-578T 7.38 µM | M14 1.88 µM | SNB-19 11.4 µM | NCI-H226 13.4 µM | SF-268 1.79 µM | K562 2.85 µM | HT-29 2.23 µM | OVCAR-3 2.31 µM | NCI-H522 1.21 µM | MDA-MB-435 2.36 µM | HCT-116 1.69 µM | HL-60 1.4 µM | ACHN 1.95 µM | Malme-3M 1.42 µM | SF-295 15.4 µM | LOX IMVI 1.66 µM | COLO 205 2.02 µM | A549 3.56 µM | KM12 1.67 µM | TK-10 2.36 µM | T47D 2.92 µM | OVCAR-4 4.57 µM | UACC-62 2.16 µM | A498 12.2 µM | NCI-H460 13.8 µM | BT-549 4.06 µM | OVCAR-8 1.8 µM | HOP-62 6 µM | SK-MEL-5 13.2 µM | SK-MEL-28 2.1 µM | CAKI-1 1.76 µM | SF-539 2.63 µM
active: CCRF-CEM 0.255 µM | MCF7 0.794 µM | RPMI-8226 0.155 µM
2.02 µM: HCT-15

NC(=S)NS(=O)(=O)c1ccc(Cl)cc1Cl
inactive: IGROV-1 > 100 µM | HCC 2998 > 100 µM | MDA-N > 100 µM | EKVX > 100 µM | SN12C > 100 µM | MDA-MB-231 > 100 µM | UACC-257 > 100 µM | UO-31 > 100 µM | PC-3 > 100 µM | SNB-75 > 100 µM | OVCAR-5 > 100 µM | U-251 > 100 µM | 786-0 > 100 µM | SW-620 > 100 µM | HOP-92 > 100 µM | MOLT-4 > 100 µM | NCI/ADR-RES > 100 µM | CCRF-CEM > 100 µM | NCI-H23 > 100 µM | SK-MEL-2 > 100 µM | DU-145 > 100 µM | SK-OV-3 > 100 µM | Hs-578T > 100 µM | M14 > 100 µM | SNB-19 > 100 µM | NCI-H226 > 100 µM | SF-268 > 100 µM | RXF 393 > 100 µM | K562 > 100 µM | HT-29 > 100 µM | OVCAR-3 > 100 µM | NCI-H522 > 100 µM | MDA-MB-435 > 100 µM | HCT-116 > 100 µM | HL-60 > 100 µM | ACHN > 100 µM | Malme-3M > 100 µM | SF-295 > 100 µM | LOX IMVI > 100 µM | COLO 205 > 100 µM | A549 > 100 µM | KM12 > 100 µM | TK-10 > 100 µM | T47D > 100 µM | OVCAR-4 > 100 µM | UACC-62 > 100 µM | NCI-H460 > 100 µM | BT-549 > 100 µM | OVCAR-8 > 100 µM | HOP-62 > 100 µM | SK-MEL-5 > 100 µM | RPMI-8226 > 100 µM | SK-MEL-28 > 100 µM | CAKI-1 > 100 µM | SF-539 > 100 µM
> 100 µM: HCT-15

Cc1ccc(/N=C2\SC(=S)N(CCC[N+](C)(C)C)\C2=N/c2ccc(C)cc2)cc1
inactive: IGROV-1 10.1 µM | HCC 2998 15.9 µM | MDA-N 12.8 µM | EKVX 17 µM | SN12C 11.2 µM | MDA-MB-231 14.3 µM | UACC-257 12 µM | UO-31 18.5 µM | PC-3 13.7 µM | SNB-75 2.94 µM | OVCAR-5 14.5 µM | U-251 11.3 µM | 786-0 14.1 µM | SW-620 20.7 µM | HOP-92 14.2 µM | MOLT-4 10.1 µM | CCRF-CEM 19.1 µM | NCI-H23 14.5 µM | SK-MEL-2 11 µM | SR 7.03 µM | MCF7 21.6 µM | Hs-578T 4.08 µM | M14 21.1 µM | SNB-19 8.24 µM | NCI-H226 21.7 µM | RXF 393 2.49 µM | K562 7.13 µM | HT-29 14.8 µM | HCT-116 11 µM | HL-60 1.99 µM | ACHN 13.2 µM | Malme-3M 18.1 µM | COLO 205 10.3 µM | A549 15.6 µM | KM12 24.4 µM | TK-10 18.9 µM | T47D 2.29 µM | UACC-62 10 µM | A498 17.2 µM | NCI-H460 18.1 µM | BT-549 4.22 µM | OVCAR-8 15.4 µM | HOP-62 23.7 µM | SK-MEL-5 10.9 µM | RPMI-8226 6.01 µM | SK-MEL-28 7.64 µM
13.8 µM: HCT-15

CC1=NN(c2nc(N)nc(NS(=O)(=O)c3cc(C)c(Cl)cc3S)n2)C(C)(C)C1
> 10 µM: HCT-15
inactive: IGROV-1 > 10 µM | HCC 2998 > 10 µM | MDA-N > 10 µM | EKVX > 10 µM | SN12C > 10 µM | UACC-257 > 10 µM | UO-31 > 10 µM | PC-3 > 10 µM | SNB-75 > 10 µM | OVCAR-5 > 10 µM | U-251 > 10 µM | 786-0 > 10 µM | SW-620 > 10 µM | HOP-92 > 10 µM | MOLT-4 > 10 µM | NCI/ADR-RES > 10 µM | CCRF-CEM > 10 µM | NCI-H23 > 10 µM | SK-MEL-2 > 10 µM | DU-145 > 10 µM | SK-OV-3 > 10 µM | SR > 10 µM | MCF7 > 10 µM | Hs-578T > 10 µM | M14 > 10 µM | SNB-19 > 10 µM | NCI-H226 > 10 µM | SF-268 > 10 µM | RXF 393 > 10 µM | K562 > 10 µM | HT-29 > 10 µM | OVCAR-3 > 10 µM | NCI-H522 > 10 µM | HCT-116 > 10 µM | HL-60 > 10 µM | ACHN > 10 µM | Malme-3M > 10 µM | SF-295 > 10 µM | LOX IMVI > 10 µM | COLO 205 > 10 µM | A549 > 10 µM | KM12 > 10 µM | TK-10 > 10 µM | T47D > 10 µM | OVCAR-4 > 10 µM | A498 > 10 µM | NCI-H460 > 10 µM | BT-549 > 10 µM | OVCAR-8 > 10 µM | HOP-62 > 10 µM | SK-MEL-5 > 10 µM | RPMI-8226 > 10 µM | SK-MEL-28 > 10 µM | CAKI-1 > 10 µM | SF-539 > 10 µM

N#Cc1ccc(/C=C2\Cc3ccccc3C2=O)cc1
inactive: HCC 2998 > 100 µM | MDA-N > 100 µM | EKVX 46.8 µM | SN12C > 100 µM | MDA-MB-231 > 100 µM | UACC-257 75.2 µM | UO-31 43.4 µM | PC-3 > 100 µM | SNB-75 > 100 µM | 786-0 > 100 µM | SW-620 > 100 µM | MOLT-4 > 100 µM | CCRF-CEM > 100 µM | NCI-H23 > 100 µM | DU-145 > 100 µM | SK-OV-3 > 100 µM | SR > 100 µM | MCF7 > 100 µM | Hs-578T 51.2 µM | M14 > 100 µM | SNB-19 > 100 µM | NCI-H226 56.9 µM | SF-268 > 100 µM | RXF 393 > 100 µM | K562 > 100 µM | HT-29 > 100 µM | OVCAR-3 > 100 µM | NCI-H522 14.3 µM | MDA-MB-435 > 100 µM | HCT-116 > 100 µM | HL-60 67.6 µM | ACHN > 100 µM | SF-295 > 100 µM | COLO 205 > 100 µM | A549 > 100 µM | KM12 > 100 µM | TK-10 > 100 µM | T47D 36.3 µM | OVCAR-4 > 100 µM | UACC-62 > 100 µM | NCI-H460 > 100 µM | BT-549 > 100 µM | OVCAR-8 > 100 µM | HOP-62 > 100 µM | SK-MEL-5 > 100 µM | RPMI-8226 > 100 µM | SK-MEL-28 > 100 µM | CAKI-1 26.2 µM | SF-539 > 100 µM
> 100 µM: HCT-15
